In patent US20240384268A1, “Oligonucleotides” (Hudson Institute of Medical Research, priority 2021, published 2024):
In the oligonucleotide strings, read from the 5' end, every base follows the letter of its sugar. An asterisk marks phosphorothioate; unmarked linkages are phosphodiester. Other units and linkages are bracketed, terminal groups are in braces. A string of capitals states the bases alone. d = 2'-deoxy (DNA); m = 2'-O-methyl

Target: T1, TLR8 (Homo sapiens, UniProt Q9NR97)
T1 sequence (Q9NR97 27-1041): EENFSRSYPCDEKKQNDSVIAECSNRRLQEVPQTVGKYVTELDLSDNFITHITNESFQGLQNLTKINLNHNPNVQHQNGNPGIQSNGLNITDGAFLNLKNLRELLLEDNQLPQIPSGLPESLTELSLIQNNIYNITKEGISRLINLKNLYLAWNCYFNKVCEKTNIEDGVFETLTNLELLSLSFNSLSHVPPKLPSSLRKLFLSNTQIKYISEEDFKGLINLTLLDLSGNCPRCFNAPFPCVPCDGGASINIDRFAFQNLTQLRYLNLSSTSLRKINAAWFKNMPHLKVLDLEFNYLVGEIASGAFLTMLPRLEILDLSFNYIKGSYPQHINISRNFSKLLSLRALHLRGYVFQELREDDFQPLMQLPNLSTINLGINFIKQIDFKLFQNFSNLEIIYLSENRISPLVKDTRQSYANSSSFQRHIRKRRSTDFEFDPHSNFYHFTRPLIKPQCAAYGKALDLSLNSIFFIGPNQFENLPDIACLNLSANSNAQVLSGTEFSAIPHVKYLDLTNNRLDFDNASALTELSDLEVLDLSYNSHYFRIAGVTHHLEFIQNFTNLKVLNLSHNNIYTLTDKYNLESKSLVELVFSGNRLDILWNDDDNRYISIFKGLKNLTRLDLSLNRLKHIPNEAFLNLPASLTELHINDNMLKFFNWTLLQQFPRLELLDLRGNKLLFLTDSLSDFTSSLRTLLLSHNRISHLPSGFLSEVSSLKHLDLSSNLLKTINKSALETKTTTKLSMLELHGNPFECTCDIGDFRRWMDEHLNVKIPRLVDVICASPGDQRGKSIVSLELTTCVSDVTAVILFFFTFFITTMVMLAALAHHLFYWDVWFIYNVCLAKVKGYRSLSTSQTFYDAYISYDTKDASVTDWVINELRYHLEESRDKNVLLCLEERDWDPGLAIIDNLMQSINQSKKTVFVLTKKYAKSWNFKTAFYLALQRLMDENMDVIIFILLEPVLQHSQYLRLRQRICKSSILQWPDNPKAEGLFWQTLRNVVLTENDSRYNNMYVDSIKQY
Experiment: HEK-TLR8 NF-κB-luciferase reporter, R848 or Motolimod stimulation (potentiation or inhibition)
Type: cell-based
Design: expressed in transfected cells; host or cells: 293XLhTLR8 (HEK293)
Details: for TLR8 100 nM (averaged NF-κB-Luciferase level relative to R848 condition, fold increase): ASO 100 nM; for TLR8 100 nM (averaged NF-κB-Luciferase level relative to R848 condition, fold increase) / TLR8 500 nM (averaged NF-κB-Luciferase level relative to R848 condition, fold increase): relative to R848 only; for TLR8 500 nM (averaged NF-κB-Luciferase level relative to R848 condition, fold increase): ASO 500 nM; for TLR8-500 nM: averaged NF-κB-Luciferase relative to R848: 500 nM ASO, fold increase relative to R848 without ASO (Alharbi et al., 2020)

“TCTTCATCGGCCCTGC (antisense; LNA-modified, pattern not given here) [CAMSAP1-2112 LNA V1]” was tested, and the “TLR8 100 nM (averaged NF-κB-Luciferase level relative to R848 condition, fold increase)” value was 0.595 and the “TLR8 500 nM (averaged NF-κB-Luciferase level relative to R848 condition, fold increase)” value was 1.393.
In the case of “TCTTGGCTTCGTGGAG (antisense; LNA-modified, pattern not given here) [MB21D1-521 LNA V1]”, the “TLR8 100 nM (averaged NF-κB-Luciferase level relative to R848 condition, fold increase)” value is reported as 0.541 and the “TLR8 500 nM (averaged NF-κB-Luciferase level relative to R848 condition, fold increase)” value is reported as 0.197.
For “TGACAAAGATTCACTG (antisense; LNA-modified, pattern not given here) [HPRT LNA-1353 KL]”, the “TLR8 100 nM (averaged NF-κB-Luciferase level relative to R848 condition, fold increase)” value was 0.633 and the “TLR8 500 nM (averaged NF-κB-Luciferase level relative to R848 condition, fold increase)” value was 1.756.
For “TGACTGTCTTGAGGGT (antisense; LNA-modified, pattern not given here) [MB21D1-1483 LNA KL]”, the “TLR8 100 nM (averaged NF-κB-Luciferase level relative to R848 condition, fold increase)” value was 0.973 and the “TLR8 500 nM (averaged NF-κB-Luciferase level relative to R848 condition, fold increase)” value was 3.210.
“TGCTCCTCGGTCTCCC (antisense; LNA-modified, pattern not given here) [CAMSAP1-1850 LNA V1]” was tested, and the “TLR8 100 nM (averaged NF-κB-Luciferase level relative to R848 condition, fold increase)” value was 1.097 and the “TLR8 500 nM (averaged NF-κB-Luciferase level relative to R848 condition, fold increase)” value was 4.771.
With “TGGTCCACAACCCCTT (antisense; LNA-modified, pattern not given here) [MB21D1-697 LNA V1]” the “TLR8 100 nM (averaged NF-κB-Luciferase level relative to R848 condition, fold increase)” value was 0.559 and the “TLR8 500 nM (averaged NF-κB-Luciferase level relative to R848 condition, fold increase)” value was 1.454.
For “TGGTGGCCACCCATCT (antisense; LNA-modified, pattern not given here) [CTNN2B-2479 LNA V1]”, the “TLR8 100 nM (averaged NF-κB-Luciferase level relative to R848 condition, fold increase)” value was 0.464 and the “TLR8 500 nM (averaged NF-κB-Luciferase level relative to R848 condition, fold increase)” value was 0.604.
With “TGTCCTTGCACGTGGC (antisense; LNA-modified, pattern not given here) [EGFR-1016 LNA V1]” the “TLR8 100 nM (averaged NF-κB-Luciferase level relative to R848 condition, fold increase)” value was 0.636 and the “TLR8 500 nM (averaged NF-κB-Luciferase level relative to R848 condition, fold increase)” value was 1.158.
For “TGTCTGGAAGCTTCCT (antisense; LNA-modified, pattern not given here) [CTNN2B-808 LNA V1]”, the “TLR8 100 nM (averaged NF-κB-Luciferase level relative to R848 condition, fold increase)” value was 0.600 and the “TLR8 500 nM (averaged NF-κB-Luciferase level relative to R848 condition, fold increase)” value was 0.871.
For “TTCAGGCGCTGCCTTG (antisense; LNA-modified, pattern not given here) [CAMSAP1-2709 LNA V1]”, the “TLR8 100 nM (averaged NF-κB-Luciferase level relative to R848 condition, fold increase)” value was 0.479 and the “TLR8 500 nM (averaged NF-κB-Luciferase level relative to R848 condition, fold increase)” value was 0.764.
“mA*mA*mA*mG*mC*A*G*T*C*T*C*C*A*T*G*mU*mC*mC*mC*mA (mA*mA*mA*mG*mC*dA*dG*dT*dC*dT*dC*dC*dA*dT*dG*mU*mC*mC*mC*mA; antisense) [[CDKN2B-AS1]2237]” was tested, and the “TLR8-500 nM: averaged NF-κB-Luciferase relative to R848” value (HEK-TLR8) was 3.38 fold.
In the case of “mA*mA*mG*mC*mA*G*T*C*T*C*C*A*T*G*T*mC*mC*mC*mA*mG (mA*mA*mG*mC*mA*dG*dT*dC*dT*dC*dC*dA*dT*dG*dT*mC*mC*mC*mA*mG; antisense) [[CDKN2B-AS1]2236]”, the “TLR8-500 nM: averaged NF-κB-Luciferase relative to R848” value (HEK-TLR8) is reported as 2.62 fold.
In the case of “mA*mG*mC*mA*mG*T*C*T*C*C*A*T*G*T*C*mC*mC*mA*mG*mG (AGCAGTCTCCATGTCCCAGG; antisense; sugars from the 5' end m5 d10 m5, all phosphorothioate, methylation of C not given here) [[CDKN2B-AS1]2235]”, the “TLR8-500 nM: averaged NF-κB-Luciferase relative to R848” value (HEK-TLR8) is reported as 4.93 fold.
For “mA*mG*mU*mC*mU*C*C*A*T*G*T*C*C*C*A*mG*mG*mC*mC*mU (mA*mG*mU*mC*mU*dC*dC*dA*dT*dG*dT*dC*dC*dC*dA*mG*mG*mC*mC*mU; antisense) [[CDKN2B-AS1]2232]”, the “TLR8-500 nM: averaged NF-κB-Luciferase relative to R848” value (HEK-TLR8) was 2.28 fold.
“mA*mG*mU*mG*mG*C*A*C*A*T*A*C*C*A*C*mA*mC*mC*mC*mU (AGUGGCACATACCACACCCU; antisense; sugars from the 5' end m5 d10 m5, all phosphorothioate, methylation of C not given here) [[CDKN2B-AS1]495]” was tested, and the “TLR8-500 nM: averaged NF-κB-Luciferase relative to R848” value (HEK-TLR8) was 4.48 fold.
“mA*mU*mU*mU*mC*C*A*C*A*T*G*C*C*C*A*mG*mU*mG*mU*mU (AUUUCCACATGCCCAGUGUU; antisense; sugars from the 5' end m5 d10 m5, all phosphorothioate, methylation of C not given here) [[CDKN2B-AS1]626]” was tested, and the “TLR8-500 nM: averaged NF-κB-Luciferase relative to R848” value (HEK-TLR8) was 4.09 fold.
With “mC*mA*mG*mU*mC*T*C*C*A*T*G*T*C*C*C*mA*mG*mG*mC*mC (mC*mA*mG*mU*mC*dT*dC*dC*dA*dT*dG*dT*dC*dC*dC*mA*mG*mG*mC*mC; antisense) [[CDKN2B-AS1]2233]” the “TLR8-500 nM: averaged NF-κB-Luciferase relative to R848” value (HEK-TLR8) was 3.81 fold.
In the case of “mC*mA*mG*mU*mG*T*T*T*T*T*A*A*T*T*T*mU*mG*mU*mA*mG (mC*mA*mG*mU*mG*dT*dT*dT*dT*dT*dA*dA*dT*dT*dT*mU*mG*mU*mA*mG; antisense) [[CDKN2B-AS1]613]”, the “TLR8-500 nM: averaged NF-κB-Luciferase relative to R848” value (HEK-TLR8) is reported as 6.73 fold.
“mC*mU*mU*mG*mU*G*A*A*A*A*G*A*T*T*A*mU*mC*mU*mU*mC (mC*mU*mU*mG*mU*dG*dA*dA*dA*dA*dG*dA*dT*dT*dA*mU*mC*mU*mU*mC) [[CDKN2B-AS1]2139]” was tested, and the “TLR8-500 nM: averaged NF-κB-Luciferase relative to R848” value (HEK-TLR8) was 6.02 fold.
In the case of “mG*mC*mA*mG*mU*C*T*C*C*A*T*G*T*C*C*mC*mA*mG*mG*mC (GCAGUCTCCATGTCCCAGGC; antisense; sugars from the 5' end m5 d10 m5, all phosphorothioate, methylation of C not given here) [[CDKN2B-AS1]2234]”, the “TLR8 potentiation of R848 sensing, 20-mer ASOs (in words)” value (HEK-TLR8, 500 nM ASO ~30 min, R848 overnight) is reported as “weak potentiator of TLR8” and the “TLR8-500 nM: averaged NF-κB-Luciferase relative to R848” value (HEK-TLR8) is reported as 2.25 fold.
“mG*mU*mC*mU*mC*C*A*T*G*T*C*C*C*A*G*mG*mC*mC*mU*mC (mG*mU*mC*mU*mC*dC*dA*dT*dG*dT*dC*dC*dC*dA*dG*mG*mC*mC*mU*mC) [[CDKN2B;AS1]2231]” was tested, and the “TLR8-500 nM: averaged NF-κB-Luciferase relative to R848” value (HEK-TLR8) was 1.25 fold.
“mG*mU*mG*mU*mC*C*T*T*C*A*T*G*C*T*T*mU*mG*mG*mA*mU (GUGUCCTTCATGCTTUGGAU; antisense; sugars from the 5' end m5 d10 m5, all phosphorothioate, methylation of C not given here) [[CDKN2B-AS1]1415]” was tested, and the “TLR8-500 nM: averaged NF-κB-Luciferase relative to R848” value (HEK-TLR8) was 1.60 fold.
With “mG*mU*mG*mU*mU*T*T*T*A*A*T*T*T*T*G*mU*mA*mG*mA*mG (mG*mU*mG*mU*mU*dT*dT*dT*dA*dA*dT*dT*dT*dT*dG*mU*mA*mG*mA*mG) [[CDKN2B-AS1]611]” the “TLR8-500 nM: averaged NF-κB-Luciferase relative to R848” value (HEK-TLR8) was 1.88 fold.
With “mU*mA*mU*mU*mU*C*C*A*C*A*T*G*C*C*C*mA*mG*mU*mG*mU (mU*mA*mU*mU*mU*dC*dC*dA*dC*dA*dT*dG*dC*dC*dC*mA*mG*mU*mG*mU; antisense) [[CDKN2B-AS1]627]” the “TLR8-500 nM: averaged NF-κB-Luciferase relative to R848” value (HEK-TLR8) was 3.87 fold.
